Test results published in patent publication US20250282798A1, “HETEROARYL-SUBSTITUTED BICYCLIC COMPOUND AND USE THEREOF” (Medshine Discovery Inc., priority 2022, published 2025).

Assays:
human HPK1 [1] = biological target: T1, human HPK1 (Homo sapiens (Human), UniProt Q92918); experiment: 33P isotope-labeled kinase activity assay (Method 1); assay type: biochemical; conditions: HPK1 enzyme concentration 8.1 nM; ATP concentration 15 μM
Procedure: Method 1: The IC50 value was assayed by ^33P isotope-labeled kinase activity assay to evaluate the inhibitory ability of a test compound on human HPK1.
(§1) Enzyme buffer conditions: 50 mM Hepes (pH 7.5), 10 mM MgCl2, 1 mM EGTA, 0.01% Brij35, 2 mM DTT.
(§2) Assay steps: A compound was diluted 3-fold with DMSO in a dilution plate, with a final initial concentration of […] and 10 concentration gradient points. The compound was diluted 50-fold into the kinase reaction buffer, and the mixture was shaken on a shaker for 20 minutes. The kinase was prepared with the enzyme reaction buffer. 2 μL of kinase was added to each well of a reaction plate. 1 μL of the diluted compound in the buffer was added to each well. The plate was sealed with a sealing film, centrifuged at 1000 g for 30 seconds, and placed at room temperature for 10 minutes. The mixed solution of ATP/MBP was prepared with the enzyme reaction buffer. 2 μL of the mixed solution of ATP/MBP was added to the reaction plate. The plate was sealed with a sealing film, and centrifuged at 1000 g for 30 seconds. The mixture in the plate was reacted at room temperature for 60 minutes. […] The plate was incubated at 25° C. for 40 min. […] The plate was incubated at 25° C. for 40 min. The RLU (relative luminescence unit) signal was read with a BMG microplate reader, and the signal intensity was used to characterize the activity of the kinase.

Jurkat cells = experiment: IL-2 assay of Jurkat cells (ELISA); assay type: cell-based; conditions: CD3/CD28 antibodies, 48 hours
Procedure: The concentration of Jurkat cells growing in the logarithmic phase was adjusted to 1×10^6/mL. 100 μL/well of the cells was taken and plated in a 96-well round-bottom plate coated with CD3 antibodies. The cells were treated with different concentrations of the compounds with the addition of CD28 antibodies for 48 hours. The supernatant of the cell culture was collected, diluted 5-fold, and added to an ELISA plate coated with IL-2. The enzyme-linked immunosorbent assay was performed according to the kit instructions (Dakewe, 1110202). OD570 and OD450 were read with Envision, and the data were analyzed by Prism.

human HPK1 [2] = biological target: T1, human HPK1; experiment: Kinase activity assay using ADP-Glo method (Method 2); assay type: biochemical; conditions: HPK1 enzyme concentration 0.1 nM; ATP concentration 10 μM
Procedure: Method 2: The IC50 value was assayed by the kinase activity assay using ADP-Glo method to evaluate the inhibitory ability of a test compound on human HPK1.
Enzyme buffer conditions: 50 mM Hepes (pH 7.5), 10 mM MgCl2, 1 mM EGTA, 0.01% Brij35, 2 mM DTT. […]
as §2, with “4-fold” for “3-fold”
(§3) The kinase activity data were expressed as the comparison of the kinase activity of a group with a test compound and the kinase activity of the blank group (containing only DMSO). The IC50 value was obtained by curve fitting using Prism software (GraphPad7.0).

human GLK = human GLK (Homo sapiens (Human), UniProt Q8IVH8); experiment: Kinase activity assay using ADP-Glo method, GLK; assay type: biochemical; conditions: GLK enzyme concentration 8 nM; ATP 20 μM
Chain of human GLK (Q8IVH8 whole entry): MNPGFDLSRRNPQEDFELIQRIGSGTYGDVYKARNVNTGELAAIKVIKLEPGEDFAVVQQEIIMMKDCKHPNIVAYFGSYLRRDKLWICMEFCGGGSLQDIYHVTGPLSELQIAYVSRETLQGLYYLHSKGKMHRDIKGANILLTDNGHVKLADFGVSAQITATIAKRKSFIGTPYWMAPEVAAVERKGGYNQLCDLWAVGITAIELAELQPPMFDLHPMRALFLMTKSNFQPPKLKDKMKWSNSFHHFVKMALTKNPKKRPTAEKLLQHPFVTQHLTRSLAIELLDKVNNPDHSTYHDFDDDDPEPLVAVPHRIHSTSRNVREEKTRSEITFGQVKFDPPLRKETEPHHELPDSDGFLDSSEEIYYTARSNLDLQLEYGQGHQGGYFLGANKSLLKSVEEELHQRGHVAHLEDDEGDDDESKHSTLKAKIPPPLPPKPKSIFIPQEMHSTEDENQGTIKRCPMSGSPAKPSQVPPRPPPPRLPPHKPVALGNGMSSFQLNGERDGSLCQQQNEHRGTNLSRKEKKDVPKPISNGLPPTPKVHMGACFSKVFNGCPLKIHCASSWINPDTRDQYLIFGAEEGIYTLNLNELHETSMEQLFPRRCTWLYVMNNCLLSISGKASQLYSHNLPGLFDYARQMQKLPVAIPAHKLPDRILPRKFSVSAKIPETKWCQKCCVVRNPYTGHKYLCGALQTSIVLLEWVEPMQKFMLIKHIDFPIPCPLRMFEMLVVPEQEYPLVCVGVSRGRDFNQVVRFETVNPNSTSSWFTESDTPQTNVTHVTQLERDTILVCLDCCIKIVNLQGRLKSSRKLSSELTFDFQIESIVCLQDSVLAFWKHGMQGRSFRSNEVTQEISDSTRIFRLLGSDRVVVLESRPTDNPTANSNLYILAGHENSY
Procedure: The IC50 value was assayed by the kinase activity assay using ADP-Glo method to evaluate the inhibitory ability of a test compound on human GLK.
as §1
Preparation of the mixture of kinase and substrate: the concentration of GLK in the reaction solution was 8 nM, the concentration of ATP was […], and the concentration of MBP was 0.05 mg/mL.
Assay steps: A compound was diluted 4-fold with DMSO in a dilution plate, with a final initial concentration of […] and 10 concentration gradient points. The compound was diluted 50-fold into the kinase reaction buffer, and the mixture was shaken on a shaker for 20 minutes. The kinase was prepared with the enzyme reaction buffer. 2 μL of kinase was added to each well of a reaction plate. 1 μL of the diluted compound in the buffer was added to each well. The plate was sealed with a sealing film, centrifuged at 1000 g for 30 seconds, and placed at room temperature for 10 minutes. The mixed solution of ATP/MBP was prepared with the enzyme reaction buffer. 2 μL of the mixed solution of ATP/MBP was added to the reaction plate. The plate was sealed with a sealing film, and centrifuged at 1000 g for 30 seconds. The mixture in the plate was reacted at room temperature for 60 minutes. 4 μL of ADP-Glo was transferred to the 384 reaction plate, and centrifuged at 1000 rpm/min for 1 min. The plate was incubated at 25° C. for 40 min. 8 μL of detection solution was transferred to the 384 reaction plate, and centrifuged at 1000 rpm/min for 1 min. The plate was incubated at 25° C. for 40 min. The RLU (relative luminescence unit) signal was read with a BMG microplate reader, and the signal intensity was used to characterize the activity of the kinase.
as §3

[3] = In vitro metabolic stability in human liver microsomes; assay type: in vitro ADME; conditions: 1 μM compound, 0.5 mg/mL protein
Procedure: The in vitro metabolic stability of the compounds of the present disclosure in human was investigated by the metabolic stability in human liver microsomes.
Assay conditions: 1 μM of a compound was incubated with human liver microsomes supplemented with NADPH regeneration system at 37° C. for a certain period of time up to 60 minutes. The concentration of the compound in the resulting sample was assayed by LC-MS/MS method.
Assay procedure: 96-well incubation plates were named T0, T5, T15, T30, T45, T60, Blank60 and NCF60, respectively. The reaction time corresponding to the incubation plates were 0, 5, 15, 30, 45 and 60 minutes, respectively. No test sample or control compound was added to the Blank60 plate, and samples were taken after 60 minutes of incubation. Potassium phosphate buffer was used instead of NADPH regeneration system solution in the NCF60 plate, and the plate was incubated for 60 minutes. All the samples of the time points were from a single well.
5 μL of a test sample or control sample working solution and 100 μL of microsome working solution (the concentration of liver microsome protein was 0.5 mg/mL) were added to the T0, T5, T15, T30, T45, T60 and NCF60 plates, respectively. Only microsome working solution was added to the Blank60 plate. Then, the Blank60, T5, T15, T30, T45 and T60 plates, except TO and NCF60 plates, were placed in a 37° C. water bath, and preincubated for about 10 minutes.
180 μL of stop solution (the stop solution was a solution of tolbutamide (100 ng/mL) in acetonitrile and methanol (95:5, V/V)) was firstly added to the sample of TO plate, and then the NADPH regeneration system working solution was added.
50 μL of potassium phosphate buffer was added to each well of the NCF60 plate, and the plate was incubated for 60 minutes.
After the pre-incubation of Blank60, T5, T15, T30, T45 and T60 plates, 44 μL of NADPH regeneration system working solution was added to each sample well to initiate the reaction. Therefore, for the sample wells containing a test sample or control sample working solution, the final concentration of the reaction was […], the concentration of liver microsomes was 0.5 mg/mL, and the final concentrations of DMSO and acetonitrile in the reaction system were 0.01% (v/v) and 0.99% (v/v), respectively.
After being incubated for an appropriate time (e.g., 5, 15, 30, 45, and 60 min), 180 μL of stop solution was added to each well of the test sample and control sample of Blank60, T5, T15, T30, T45, T60, and NCF60 plates, respectively, to terminate the reaction.
All sample plates were shaken and centrifuged for 10 min. 80 μL of the supernatant of a test sample was taken and diluted into 240 μL of a mixture of acetonitrile and water (1:9, V/V) containing 0.1% formic acid for LC-MS/MS analysis.
By calculating the corresponding time point and the remaining percentage of a compound, the half-life T1/2 and clearance rate CLint(liver) of the compound in human liver microsome metabolism were obtained.

MDR1 (P-glycoprotein) = experiment: Permeability evaluation in MDR1-MDCK II cells; assay type: in vitro ADME; conditions: dog
Procedure: Cell line: The MDR1-MDCK II cell line authorized by Piet Borst's laboratory at the Netherlands Cancer Research Institute was used in this assay as an in vitro model for the permeability evaluation assay. The cells were inoculated in a Transwell-96 well cell plate at a density of 2.3×10^5 cells/cm^2, and cultured in a carbon dioxide incubator for 4-7 days before use in the transport assay.
The administration concentration of the test sample was 2.00 μM.
Test direction and number of parallel samples: bidirectional A-B and B-A, 2 parallels
Transport buffer (TB): HBSS solution containing 10 mM HEPES (pH 7.40±0.05)
Incubation conditions: 37±1° C., 5% CO2, incubated for 150 minutes
Control compounds: Nadolol and metoprolol were used as low-permeability and high-permeability control compounds. Digoxin was used as a substrate of P-glycoprotein. The administration concentration of nadolol and metoprolol was 2.00 μM, and the administration concentration of digoxin was 10.0 μM.
After the transport assay, the integrity of the MDR1-MDCK II cell layer was assayed by the Lucifer Yellow Rejection Assay. The remaining solution in the apical and basolateral wells was removed. 75 μL of TB containing 100 μM Lucifer Yellow was added to the apical well, and 250 μL of TB was added to the basolateral well. The cell plate was incubated in a cell culture incubator at 37±1° C., 5% CO2 and saturated humidity for 30 minutes. Then, 20 μL of sample was taken from the apical well and mixed with 60 μL of TB, and 80 μL of sample was taken from the basolateral well. The relative fluorescence unit (RFU) was measured at 425/528 nm (excitation/emission) using a microplate reader.
In this assay, the sample analysis of the test samples and control compounds of nadolol, metoprolol, and digoxin was performed by liquid chromatography-tandem mass spectrometry (LC-MS/MS). The retention time of the analytes and internal standards, chromatogram acquisition, and chromatogram integration were processed using the software Analyst (Sciex, Framingham, MA, USA). The sample analysis was semi-quantitatively determined using the peak area of analyte and the peak area of internal standard.
VR is the volume of the receiver end solution (0.075 mL for side A, and 0.25 mL for side B); Area is the relative surface area of the cell monolayer (0.0804 cm2); Time is the incubation time (9000 s); C0 is the peak area ratio of the compound at the administration end; VD is the volume of the administration end (0.075 mL for side A, and 0.25 mL for side B); CD and CR are the peak area ratios of the compound at the administration end and the receiver end, respectively.

T1 sequence (Q92918 whole entry): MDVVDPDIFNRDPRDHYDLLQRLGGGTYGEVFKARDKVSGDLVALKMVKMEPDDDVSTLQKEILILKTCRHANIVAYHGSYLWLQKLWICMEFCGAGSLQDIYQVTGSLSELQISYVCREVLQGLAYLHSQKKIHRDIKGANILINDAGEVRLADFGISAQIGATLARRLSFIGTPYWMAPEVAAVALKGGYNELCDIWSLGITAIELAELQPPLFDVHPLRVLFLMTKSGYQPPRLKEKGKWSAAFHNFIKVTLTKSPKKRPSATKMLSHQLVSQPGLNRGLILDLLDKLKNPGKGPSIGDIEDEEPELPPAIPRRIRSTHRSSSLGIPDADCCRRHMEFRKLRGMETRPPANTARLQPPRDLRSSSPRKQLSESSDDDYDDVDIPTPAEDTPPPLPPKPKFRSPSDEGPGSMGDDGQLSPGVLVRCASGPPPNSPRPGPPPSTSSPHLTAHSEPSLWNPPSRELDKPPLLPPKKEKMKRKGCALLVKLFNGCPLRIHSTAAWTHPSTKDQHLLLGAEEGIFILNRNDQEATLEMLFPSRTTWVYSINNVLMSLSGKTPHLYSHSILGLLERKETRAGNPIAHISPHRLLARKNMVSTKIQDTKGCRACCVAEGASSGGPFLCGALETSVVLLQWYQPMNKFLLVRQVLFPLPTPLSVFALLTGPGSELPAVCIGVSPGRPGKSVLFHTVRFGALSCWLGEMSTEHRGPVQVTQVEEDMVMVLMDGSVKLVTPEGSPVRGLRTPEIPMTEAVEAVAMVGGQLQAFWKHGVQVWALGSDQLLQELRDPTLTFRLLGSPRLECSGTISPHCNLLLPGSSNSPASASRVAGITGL

SMILES	IC50 (human HPK1 [1])	IC50 (human GLK)	CLint scaled at 1 μM [3]	half-life at 1 μM [3]	further results
Cn1ccc2c(-c3ccc(Nc4ccc5c(n4)OC[C@H]4CNCCN54)c4c3CNC4=O)ccnc21 [Compound 5]	3 nM	–	–	–	EC50 (Jurkat cells): 710 nM
CN(C)Cc1cc(Nc2ncc(-c3cnc4cc(F)ccn34)c3c2C(=O)NC3)ccc1N1CCOCC1 [Compound 2]	18 nM	–	–	–	–
CCN1CCN2c3ccc(Nc4ccc(-c5ccnc6c5ccn6C)c5c4C(=O)NC5)nc3OC[C@H]2C1 [Compound 6]	8 nM	–	–	–	EC50 (Jurkat cells; Homo sapiens): 320 nM
O=C1NCc2c(-c3cnc4cc(F)ccn34)ccc(Nc3ccc4c(n3)OC[C@H]3COCCN43)c21 [Compound 9]	–	115 nM	39 mL/min/kg	32 min	IC50 (human HPK1 [2]): 0.7 nM
Cn1ccc2c(-c3ncc(Nc4ccc5c(n4)OC[C@H]4COCCN54)c4c3CNC4=O)ccnc21 [Trifluoroacetate of compound 20]	–	198 nM	63 mL/min/kg	20 min	Papp A→B at 150 min, 2 μM (MDR1 (P-glycoprotein); pH 7.4, 2.00 μM, 150 minutes): 4.61 ×10⁻⁶ cm/s; Papp B→A at 150 min, 2 μM (MDR1 (P-glycoprotein); pH 7.4, 2.00 μM, 150 minutes): 22.5 ×10⁻⁶ cm/s; efflux ratio at 150 min, 2 μM (MDR1 (P-glycoprotein); pH 7.4, 2.00 μM, 150 minutes): 4.88; Papp at 150 min, 2 μM (MDR1 (P-glycoprotein); pH 7.4, class by Papp, read-out: Conclusion of the permeability): 1 to 5.5 ×10⁻⁶ cm/s
